{"source": "patent US8768431B2", "about": "“Systems and methods for tissue imaging” (The Regents of the University of Michigan, priority 2007, dated 2014)", "assay_type_in_all_cases": "in vivo, human", "key": {"[1]": {"tested_on": "metastatic PCa osseous lesions", "experiment": "fDM and mean ADC diffusion MRI of osseous lesions in a metastatic PCa patient", "conditions": "for mean ADC, femoral head lesion: baseline 74.5×10^−6; for mean ADC, sacral lesion: baseline 110.8×10^−6; for mean ADC, ilium lesion: baseline 78.0×10^−6", "protocol": "(§1) Patient Information A hormone-naïve person with newly diagnosed metastatic PCa was consented and was enrolled into the study. They were initiated on combined androgen blockade with bicalutamide and goserelin acetate. Magnetic resonance imaging scans were acquired at weeks 0 (baseline), 2, and 8 following treatment initiation which were used to generate the Functional Diffusion Maps at the 2 and 8 week time intervals. Due to pain and pathologic fracture, the patient was also treated with palliative radiation therapy encompassing the sacrum and ilium at 2 weeks post initiation of androgen deprivation therapy.\n(§2) Magnetic Resonance Imaging Magnetic resonance imaging (MRI) examinations including diffusion-weighted and standard anatomic sequences were performed before and 2 weeks after initiation of therapy. MR imaging was performed on a 3-T scanner (Achieva model; Philips Medical Systems, Bothell, Wash.) using a quadrature body coil for transmission and a six-channel cardiac coil for reception. Standard sequences for depiction of anatomy and tumor extent included axial proton density (repetition time [TR]/echo time [TE]=2700/30 msec, two averages) turbo spin-echo and axial T2-weighted turbo spin-echo (TR/TE=7800/60 msec, two averages) with fat suppression through a short inversion time (TI=200 msec). Geometry for these sequences was as follows: field of view, 281 mm right/left by 200 mm anterior/posterior; thirty-eight 4-mm sections with a 1-mm gap; 256—232 acquisition matrix for proton density; and 248 —165 for T2-weighted scans. Diffusion-weighted scans were acquired using fat-suppressed, single-shot, spinecho, echo-planar imaging to reduce motion artifact and parallel imaging (SENSE factor=2) to reduce spatial distortion. Geometry of the diffusion-weighted scans was as follows: 350 mm right/left by 302 mm anterior/posterior; thirty 5-mm sections with a 1-mm gap; 200—172 acquisition matrix; TR/TE=2000/58 msec; and 8 averages for low (b=0 sec/mm2) and 16 averages for high (b=800 sec/mm2) diffusion-sensitivity scans. Apparent diffusion coefficient (ADC) maps were calculated in the routine manner given by the logarithm of the ratio of low-b and high-b images, then scaled by the inverse of b-value difference.\nDiffusion Analysis Lesions in MR images acquired at weeks 2 and 8 were coregistered to their corresponding pretreatment MR images using an automatic algorithm based on maximizing mutual information. Registration was accomplished for each individual tumor located in the sacrum, ilium, and femoral head regions after the images were cropped to localize the registration to a limited region-of-interest (ROI) containing a single lesion. Lesions were manually contoured by a radiologist who defined the ROI by inspection of all available image data. Diffusion-average data were generated for weeks 0, 2 and 8 using the ROI contours of each of the three lesions and the mean change in diffusion values were calculated. Computation of fDMs for each lesion at weeks 2 and 8 was accomplished by comparison of voxels within the tumor at weeks 2 and 8 with the pretreatment values (week 0) as previously described (see, e.g., Moffat B A, et al., (2005) Proc Natl Acad Sci USA 102 (15), 5524-5529; Hamstra D A, et al., (2005) Proc Natl Acad Sci USA 102 (46), 16759-16764; each herein incorporated by reference in their entireties) using MIAMI Fuse (University of Michigan, Ann Arbor, Mich.) (see, e.g., Meyer C R, et al., (1997) Med Image Anal 1 (3), 195-206; herein incorporated by reference in its entirety). The tumor was segmented into three different categories wherein the red voxels represent regions within the tumor where ADC values increased (>[…]), the blue voxels represent a decreased ADC (<[…]), and the green regions represent tumor diffusion values that were within these thresholds (e.g., unchanged). […]"}, "[2]": {"tested_on": "metastatic PCa osseous lesions", "experiment": "Tumor volume by T2-weighted MRI in a metastatic PCa patient", "conditions": "for Tumor volume, Ilium: pretreatment 2.34; for Tumor volume, Femoral Head: pretreatment 52.97; for Tumor volume, Sacrum: pretreatment 68.29", "protocol": "as §1, §2\nAt the time of initial diagnosis, the patient underwent Tc-99 m MDP BS to ascertain the extent of skeletal involvement. […] After receiving androgen deprivation therapy for 7 weeks, increased sclerosis was observed by CT (FIG. 9B, arrow). […] Further characterization of the lesions was achieved by MRI. […] Tumor volumes were quantified using ROI analysis of each of the three tumors evaluated using T2-weighted MR images at weeks 0, 2, and 8 post-treatment initiation. […] Overall, tumor volume measurements were unable to detect significant perturbations in tumor size in the 8-week timeframe following treatment initiation."}, "[3]": {"tested_on": "Prostate-specific antigen", "experiment": "Serum prostate-specific antigen levels in a metastatic PCa patient", "conditions": "week 0 10.7 ng/ml", "protocol": "as §1\nClinical Correlates Serum samples were obtained at weeks 0 (baseline), 2, and 8 following treatment initiation. Prostate-specific antigen levels were quantified and expressed in […] of plasma."}, "[4]": {"conditions": "8 weeks posttreatment, palliative radiation at 2 weeks"}, "[5]": {"conditions": "8 weeks, palliative radiation at 2 weeks"}, "[6]": {"conditions": "Week 3 (so in the source), palliative radiation at 2 weeks"}}, "data": [{"substance": "bicalutamide and goserelin acetate", "values": [{"measurement": "mean percentage change from baseline of mean ADC, three lesions", "setting": "[1]; 2 weeks", "value": "−0.7±4.7", "unit": "%"}, {"measurement": "decrease of mean ADC with respect to pre-therapy baseline, three lesions", "setting": "[1]; 2 weeks post-therapy (FIG. 12 legend)", "value": "0.7±4.8", "unit": "%"}, {"measurement": "fDM, tumor volume with increased ADC, ilium lesion", "setting": "[1]; 2 weeks posttreatment", "value": 24.5, "unit": "%"}, {"measurement": "fDM, tumor volume with increased ADC, sacral lesion", "setting": "[1]; 2 weeks posttreatment", "value": 26.4, "unit": "%"}, {"measurement": "decrease in mean ADC, sacral lesion", "setting": "[1]; 2 weeks vs baseline", "value": "~10", "unit": "%"}, {"measurement": "mean ADC, femoral head lesion", "setting": "[1]; 2 weeks", "value": "77.8×10^−6 mm^2/sec"}, {"measurement": "mean ADC, sacral lesion", "setting": "[1]; 2 weeks", "value": "99.8×10^−6 mm^2/sec"}, {"measurement": "mean percentage change (increase) from baseline of mean ADC, three lesions", "setting": "[1]; 8 weeks", "value": "8.3±4.3", "unit": "%"}, {"measurement": "fDM, tumor volume with increased ADC, femoral head lesion", "setting": "[1]; 8 weeks posttreatment", "value": 36.4, "unit": "%"}, {"measurement": "fDM, tumor volume with increased ADC, ilium lesion", "setting": "[1]; [4]", "value": 47.1, "unit": "%"}, {"measurement": "fDM, tumor volume with increased ADC, sacral lesion", "setting": "[1]; [4]", "value": 29.0, "unit": "%"}, {"measurement": "increase in mean ADC above baseline, sacral lesion", "setting": "[1]; 8 weeks vs baseline", "value": "~5", "unit": "%"}, {"measurement": "increase in mean ADC, ilium lesion", "setting": "[1]; 8 weeks vs baseline", "value": 16.7, "unit": "%"}, {"measurement": "mean ADC, femoral head lesion", "setting": "[1]; 8 weeks", "value": "76.8×10^−6 mm^2/sec"}, {"measurement": "mean ADC, ilium lesion", "setting": "[1]; [5]", "value": "91.1×10^−6 mm^2/sec"}, {"measurement": "mean ADC, sacral lesion", "setting": "[1]; [5]", "value": "116.2×10^−6 mm^2/sec"}, {"measurement": "average fDM percent of tumor volume with increased diffusion, three lesions", "setting": "[1]; week 2", "value": "24±1.6", "unit": "%"}, {"measurement": "mean ADC, ilium lesion", "setting": "[1]; week 2", "value": "80.7×10^−6 mm^2/sec"}, {"measurement": "fDM, volume with significant increase in ADC, femoral head lesion", "setting": "[1]; week 2 posttreatment", "value": 21.1, "unit": "%"}, {"measurement": "average fDM percent of tumor volume with increased diffusion, three lesions", "setting": "[1]; week 8", "value": "38±5.2", "unit": "%"}, {"measurement": "Tumor volume, Ilium", "setting": "[2]; Week 2", "value": 2.76, "unit": "cm^3"}, {"measurement": "Tumor volume, Femoral Head", "setting": "[2]; Week 2", "value": 51.52, "unit": "cm^3"}, {"measurement": "Tumor volume, Sacrum", "setting": "[2]; Week 2", "value": 69.46, "unit": "cm^3"}, {"measurement": "Tumor volume, Ilium", "setting": "[2]; [6]", "value": 2.56, "unit": "cm^3"}, {"measurement": "Tumor volume, Femoral Head", "setting": "[2]; Week 3 (so in the source)", "value": 51.35, "unit": "cm^3"}, {"measurement": "Tumor volume, Sacrum", "setting": "[2]; [6]", "value": 72.21, "unit": "cm^3"}, {"measurement": "PSA level", "setting": "[3]; week 2 posttreatment", "value": 1.3, "unit": "ng/mL"}, {"measurement": "PSA level", "setting": "[3]; week 8 posttreatment", "value": 0.3, "unit": "ng/mL"}]}]}
